Where two headings read alike, the source gives them in different places.
Assays:
[1] = target: RecA (Escherichia coli, UniProt P0A7G6)
[2] = target: T1, human RAD51 (Homo sapiens, UniProt Q06609); experiment: D-loop assay for RAD51; type: biochemical; details: B02 derivatives 50 μM
T1 sequence (Q06609 2-339 limits assumed): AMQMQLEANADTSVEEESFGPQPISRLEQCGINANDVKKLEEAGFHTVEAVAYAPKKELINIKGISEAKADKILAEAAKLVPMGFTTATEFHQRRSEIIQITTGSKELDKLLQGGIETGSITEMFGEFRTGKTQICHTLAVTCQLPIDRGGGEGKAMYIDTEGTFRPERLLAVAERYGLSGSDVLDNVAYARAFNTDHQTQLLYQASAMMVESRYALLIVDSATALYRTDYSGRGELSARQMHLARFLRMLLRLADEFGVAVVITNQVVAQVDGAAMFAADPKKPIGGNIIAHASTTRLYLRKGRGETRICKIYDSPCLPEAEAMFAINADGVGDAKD

[3] = target: T2, human RAD54 (Homo sapiens, UniProt Q92698); experiment: DNA branch migration assay for RAD54; type: biochemical; details: concentrations from 0 to 200 μM
T2 sequence (Q92698 1-747): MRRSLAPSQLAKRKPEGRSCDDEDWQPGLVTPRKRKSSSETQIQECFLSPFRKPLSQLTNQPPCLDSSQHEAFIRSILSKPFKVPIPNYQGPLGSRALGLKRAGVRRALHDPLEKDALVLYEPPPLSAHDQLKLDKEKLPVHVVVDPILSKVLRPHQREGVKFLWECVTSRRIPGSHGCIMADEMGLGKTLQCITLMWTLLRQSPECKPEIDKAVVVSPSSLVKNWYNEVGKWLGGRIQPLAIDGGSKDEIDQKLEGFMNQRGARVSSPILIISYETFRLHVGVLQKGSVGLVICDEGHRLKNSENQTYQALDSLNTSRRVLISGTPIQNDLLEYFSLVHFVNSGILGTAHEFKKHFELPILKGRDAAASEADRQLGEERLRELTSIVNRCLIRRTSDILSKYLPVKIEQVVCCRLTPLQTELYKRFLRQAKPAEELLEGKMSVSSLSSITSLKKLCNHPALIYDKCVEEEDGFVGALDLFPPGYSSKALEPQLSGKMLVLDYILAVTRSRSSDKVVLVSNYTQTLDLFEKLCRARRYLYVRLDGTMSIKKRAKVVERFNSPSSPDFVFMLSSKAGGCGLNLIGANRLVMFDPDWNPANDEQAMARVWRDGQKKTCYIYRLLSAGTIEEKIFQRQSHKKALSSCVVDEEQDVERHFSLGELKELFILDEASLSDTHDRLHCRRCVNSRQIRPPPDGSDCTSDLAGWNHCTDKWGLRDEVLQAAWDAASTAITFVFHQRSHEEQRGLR

RecA, sequence (P0A7G6 2-353): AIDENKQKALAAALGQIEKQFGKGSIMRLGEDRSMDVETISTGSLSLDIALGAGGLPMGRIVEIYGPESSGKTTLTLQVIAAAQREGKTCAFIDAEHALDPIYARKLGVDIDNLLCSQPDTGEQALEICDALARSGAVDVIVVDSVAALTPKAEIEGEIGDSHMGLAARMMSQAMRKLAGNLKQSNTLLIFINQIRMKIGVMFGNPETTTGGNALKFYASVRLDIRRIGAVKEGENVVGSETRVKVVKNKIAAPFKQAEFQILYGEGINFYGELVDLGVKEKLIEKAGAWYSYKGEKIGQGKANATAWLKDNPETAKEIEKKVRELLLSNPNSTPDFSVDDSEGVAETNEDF

## CCn1c(C=Cc2cccnc2)nc2ccccc2c1=O [B02-3a]
[1]; concentrations up to 100 μM
  inhibition of RecA DNA strand exchange: do not inhibit
[2]
  inhibitory effect on DNA strand exchange activity of RAD51 (D-loop assay): retain the inhibitory effect

## Cc1cccc(-n2c(/C=C/c3cccnc3)nc3ccccc3c2=O)c1 [B02-3b]
[1]; concentrations up to 100 μM
  inhibition of RecA DNA strand exchange: do not inhibit
[2]
  inhibitory effect on DNA strand exchange activity of RAD51 (D-loop assay): retain the inhibitory effect

## Cc1ccc(-n2c(C=Cc3cccnc3)nc3ccccc3c2=O)cc1 [B02-3c]
[2]
  inhibitory effect on DNA strand exchange activity of RAD51 (D-loop assay): eliminates the inhibition

## O=c1c2ccccc2nc(C=Cc2cccnc2)n1-c1ccccc1 [B02-3d]
[2]
  inhibitory effect on DNA strand exchange activity of RAD51 (D-loop assay): eliminates the inhibition

## Cn1c(C=Cc2cccnc2)nc2ccccc2c1=O [B02-3e]
[2]
  inhibitory effect on DNA strand exchange activity of RAD51 (D-loop assay): eliminates the inhibition

## O=c1c2ccccc2nc(/C=C/c2cccnc2)n1Cc1ccccc1 [B02]
[3]
  inhibition of RAD54 branch migration activity: did not significantly inhibit
[1]; read-out: IC50 for RecA, D-loop assay, RecA 1 μM
  IC50: > 250 µM
[1]; up to 250 μM of compound
  inhibition of RecA DNA strand exchange: did not observe any significant inhibition

— article PMC3117970 (ACS chemical biology, 2011)
